Target: rabbit muscle actin (Oryctolagus cuniculus, UniProt P68135)
Assay: microcalorimetry
Assay type: binding

## O=C(c1ccccc1O)c1[nH]c(Cl)c(Cl)c1-n1c(C(=O)c2ccccc2O)cc(Cl)c1Cl [compound 6, marinopyrrole A]
  Kd: 120 ± 200 nM
